PMC5823473, “Host-parasite co-metabolic activation of antitrypanosomal aminomethyl-benzoxaboroles” (PLoS Pathogens, 2018)

Tests used:
MAOa = molecular target: T1, MAOa (Homo sapiens, UniProt P21397); assay: HPLC-MS of metabolites; assay type: biochemical; conditions: oxidised to the aldehyde
T1 construct: commercial recombinant enzyme (Sigma)
T1 sequence (P21397 1-527): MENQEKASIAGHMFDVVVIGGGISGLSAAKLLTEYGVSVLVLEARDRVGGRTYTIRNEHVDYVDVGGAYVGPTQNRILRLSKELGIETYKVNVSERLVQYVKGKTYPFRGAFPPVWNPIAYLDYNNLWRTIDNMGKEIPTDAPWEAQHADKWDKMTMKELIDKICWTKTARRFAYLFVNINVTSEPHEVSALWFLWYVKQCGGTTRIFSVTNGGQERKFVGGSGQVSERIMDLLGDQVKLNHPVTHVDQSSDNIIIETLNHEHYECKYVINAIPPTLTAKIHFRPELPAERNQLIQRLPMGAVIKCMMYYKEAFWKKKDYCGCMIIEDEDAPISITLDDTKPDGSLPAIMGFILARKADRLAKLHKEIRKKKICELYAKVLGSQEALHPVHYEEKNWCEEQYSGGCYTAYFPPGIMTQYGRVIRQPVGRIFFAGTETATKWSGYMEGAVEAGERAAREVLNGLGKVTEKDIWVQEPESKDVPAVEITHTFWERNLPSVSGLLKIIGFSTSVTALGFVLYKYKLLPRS

TbALDH3 = molecular target: T2, TbALDH3 (Trypanosoma brucei, UniProt Q583M9); assay: HPLC-MS of metabolites, coupled with MAOa or FBS; assay type: biochemical; conditions: aldehyde made in situ from AN3057; oxidised to the carboxylate (AN2861)
T2 construct: gene Tb06.5F5.780; A6-K490 seen in crystal
T2 sequence (Q583M9 1-543): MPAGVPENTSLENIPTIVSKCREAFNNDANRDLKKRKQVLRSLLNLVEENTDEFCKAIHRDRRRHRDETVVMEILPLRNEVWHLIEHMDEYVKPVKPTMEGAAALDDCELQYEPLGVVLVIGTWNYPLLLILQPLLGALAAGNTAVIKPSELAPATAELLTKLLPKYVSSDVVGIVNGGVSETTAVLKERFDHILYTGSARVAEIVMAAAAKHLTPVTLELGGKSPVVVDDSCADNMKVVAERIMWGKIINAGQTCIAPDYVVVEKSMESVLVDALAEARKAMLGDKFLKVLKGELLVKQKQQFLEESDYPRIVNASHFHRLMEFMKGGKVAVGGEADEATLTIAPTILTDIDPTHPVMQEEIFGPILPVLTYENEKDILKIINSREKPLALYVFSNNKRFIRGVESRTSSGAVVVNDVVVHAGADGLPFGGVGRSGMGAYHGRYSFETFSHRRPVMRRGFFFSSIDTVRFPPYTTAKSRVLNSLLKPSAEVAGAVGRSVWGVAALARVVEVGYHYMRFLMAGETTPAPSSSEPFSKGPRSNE

NCc1ccc(Oc2ccc3c(c2)COB3O)cc1 [AN3057, (4-(1-hydroxy-1,3-dihydrobenzo[c][1,2]oxaborol-5-yloxy)phenyl)methanaminium chloride]
HPLC-MS of metabolites (MAOa): the methylamine group in the structure is first converted by MAOa into an aldehyde

O=Cc1ccc(Oc2ccc3c(c2)COB3O)cc1 [AN3057-aldehyde]
HPLC-MS of metabolites, coupled with MAOa or FBS (TbALDH3): converted by MAOa into an aldehyde, and then is further metabolized into a carboxylic acid
